Test results as given in the NIST ThermoML archive (doi:10.1021/je800110r).
± gives the expanded uncertainty stated by the source.

Settings: 323.14 K, Liquid, Vibrating tube method

CCCCCCCCCC [decane]
Settings	mass density [kg/m3]
6233 kPa	712.5 ± 2
6244 kPa	712.5 ± 2
6414 kPa	712.6 ± 2
6459 kPa	712.7 ± 2
6531 kPa	712.7 ± 2
6557 kPa	712.8 ± 2
6576 kPa	712.8 ± 2
6597 kPa	712.9 ± 2
6619 kPa	712.7 ± 2
6725 kPa	712.9 ± 2
6747 kPa	713 ± 2
6764 kPa	712.9 ± 2
6781 kPa	713.1 ± 2
6809 kPa	713 ± 2
6826 kPa	713 ± 2
6855 kPa	713 ± 2
6870 kPa	713 ± 2
6893 kPa	713.1 ± 2
7285 kPa	713.4 ± 2
7382 kPa	713.6 ± 2
7397 kPa	713.5 ± 2
7411 kPa	713.6 ± 2
7428 kPa	713.5 ± 2
7445 kPa	713.5 ± 2
7465 kPa	713.7 ± 2
7482 kPa	713.5 ± 2
7509 kPa	713.6 ± 2
7525 kPa	713.5 ± 2
7542 kPa	713.8 ± 2
7557 kPa	713.7 ± 2
7580 kPa	713.6 ± 2
7601 kPa	713.7 ± 2
7618 kPa	713.7 ± 2
7634 kPa	713.7 ± 2
7652 kPa	713.7 ± 2
7670 kPa	713.8 ± 2
7683 kPa	713.8 ± 2
7696 kPa	713.7 ± 2
7715 kPa	713.7 ± 2
7737 kPa	713.8 ± 2
7758 kPa	713.9 ± 2
7774 kPa	713.9 ± 2
7790 kPa	713.8 ± 2
7809 kPa	713.9 ± 2
7828 kPa	713.9 ± 2
7850 kPa	714 ± 2
7869 kPa	714 ± 2
7894 kPa	713.9 ± 2
7916 kPa	713.9 ± 2
7935 kPa	714.1 ± 2
7956 kPa	714 ± 2
7977 kPa	714.1 ± 2
7997 kPa	714.1 ± 2
8016 kPa	714 ± 2
8033 kPa	714.1 ± 2
8054 kPa	714.1 ± 2
8074 kPa	714.1 ± 2
8097 kPa	714.1 ± 2
8121 kPa	714.2 ± 2
8138 kPa	714.2 ± 2
8158 kPa	714.1 ± 2
8179 kPa	714.2 ± 2
8197 kPa	714.3 ± 2
8218 kPa	714.3 ± 2
8245 kPa	714.3 ± 2
8263 kPa	714.3 ± 2
8284 kPa	714.3 ± 2
8306 kPa	714.4 ± 2
8333 kPa	714.4 ± 2
8348 kPa	714.4 ± 2
8376 kPa	714.5 ± 2
8451 kPa	714.3 ± 2
8476 kPa	714.5 ± 2
8495 kPa	714.5 ± 2
8518 kPa	714.6 ± 2
8543 kPa	714.5 ± 2
8582 kPa	714.5 ± 2
8625 kPa	714.6 ± 2
8654 kPa	714.7 ± 2
8677 kPa	714.6 ± 2
8707 kPa	714.7 ± 2
8738 kPa	714.7 ± 2
8762 kPa	714.6 ± 2
8789 kPa	714.7 ± 2
8813 kPa	714.7 ± 2
8834 kPa	714.8 ± 2
8855 kPa	714.8 ± 2
8876 kPa	714.7 ± 2
8907 kPa	714.8 ± 2
8932 kPa	714.8 ± 2
8957 kPa	714.9 ± 2
8990 kPa	714.8 ± 2
9031 kPa	715 ± 2
9048 kPa	715 ± 2
9072 kPa	715.1 ± 2
9095 kPa	715 ± 2
9118 kPa	715.1 ± 2
9139 kPa	715 ± 2
9160 kPa	715.1 ± 2
9185 kPa	715.1 ± 2
9212 kPa	715 ± 2
9231 kPa	715 ± 2
9255 kPa	715.2 ± 2
9277 kPa	715.1 ± 2
9304 kPa	715.3 ± 2
9344 kPa	715.2 ± 2
9366 kPa	715.1 ± 2
9390 kPa	715.1 ± 2
9415 kPa	715.2 ± 2
9434 kPa	715.3 ± 2
9476 kPa	715.4 ± 2
9504 kPa	715.4 ± 2
9524 kPa	715.4 ± 2
9550 kPa	715.4 ± 2
9576 kPa	715.4 ± 2
9607 kPa	715.3 ± 2
9630 kPa	715.4 ± 2
9653 kPa	715.5 ± 2
9676 kPa	715.5 ± 2
9703 kPa	715.4 ± 2
9721 kPa	715.6 ± 2
9741 kPa	715.5 ± 2
9766 kPa	715.5 ± 2
9789 kPa	715.5 ± 2
9813 kPa	715.5 ± 2
9834 kPa	715.6 ± 2
9852 kPa	715.7 ± 2
9870 kPa	715.7 ± 2
9901 kPa	715.7 ± 2
9920 kPa	715.7 ± 2
9941 kPa	715.6 ± 2
9965 kPa	715.8 ± 2
9990 kPa	715.7 ± 2
10015 kPa	715.8 ± 2
10040 kPa	715.9 ± 2
10068 kPa	715.9 ± 2
10093 kPa	715.9 ± 2
10113 kPa	715.9 ± 2
10141 kPa	715.8 ± 2
10166 kPa	715.9 ± 2
10189 kPa	715.8 ± 2
10208 kPa	715.9 ± 2
10238 kPa	716 ± 2
10264 kPa	716 ± 2
10291 kPa	716 ± 2
10367 kPa	716.1 ± 2
10397 kPa	716.1 ± 2
10421 kPa	716.1 ± 2
10442 kPa	716.2 ± 2
10472 kPa	716.2 ± 2
10493 kPa	716.2 ± 2
10520 kPa	716.1 ± 2
10579 kPa	716.2 ± 2
10608 kPa	716.2 ± 2
10639 kPa	716.3 ± 2
10664 kPa	716.2 ± 2
10686 kPa	716.4 ± 2
10714 kPa	716.4 ± 2
10739 kPa	716.4 ± 2
10771 kPa	716.4 ± 2
10796 kPa	716.4 ± 2
10826 kPa	716.4 ± 2
10852 kPa	716.5 ± 2
10882 kPa	716.5 ± 2
10909 kPa	716.5 ± 2
10931 kPa	716.6 ± 2
10956 kPa	716.5 ± 2
10988 kPa	716.6 ± 2
11010 kPa	716.6 ± 2
11042 kPa	716.7 ± 2
11071 kPa	716.7 ± 2
11103 kPa	716.7 ± 2
11126 kPa	716.8 ± 2
11156 kPa	716.7 ± 2
11185 kPa	716.7 ± 2
11209 kPa	716.9 ± 2
11236 kPa	716.8 ± 2
11259 kPa	716.7 ± 2
11422 kPa	717 ± 2
11448 kPa	717 ± 2
11495 kPa	717 ± 2
11520 kPa	717 ± 2
11538 kPa	717.1 ± 2
11560 kPa	717 ± 2
11582 kPa	717 ± 2
11601 kPa	717.2 ± 2
11626 kPa	717 ± 2
11645 kPa	717.1 ± 2
11670 kPa	717.2 ± 2
11695 kPa	717 ± 2
11718 kPa	717.2 ± 2
11739 kPa	717.1 ± 2
11755 kPa	717.1 ± 2
11781 kPa	717.2 ± 2
11813 kPa	717.3 ± 2
11845 kPa	717.4 ± 2
11865 kPa	717.2 ± 2
11891 kPa	717.4 ± 2
11927 kPa	717.4 ± 2
11954 kPa	717.4 ± 2
11974 kPa	717.4 ± 2
12001 kPa	717.4 ± 2
12022 kPa	717.4 ± 2
12046 kPa	717.5 ± 2
12071 kPa	717.5 ± 2
12283 kPa	717.7 ± 2
12299 kPa	717.6 ± 2
12320 kPa	717.7 ± 2
12335 kPa	717.6 ± 2
12350 kPa	717.7 ± 2
12372 kPa	717.8 ± 2
12543 kPa	717.9 ± 2
12558 kPa	717.9 ± 2
12576 kPa	717.9 ± 2
12592 kPa	717.9 ± 2
12612 kPa	718 ± 2
12628 kPa	717.9 ± 2
12644 kPa	717.9 ± 2
12667 kPa	717.9 ± 2
12689 kPa	718 ± 2
12714 kPa	718.1 ± 2
12739 kPa	718.1 ± 2
12755 kPa	718 ± 2
12770 kPa	718 ± 2
12790 kPa	718.3 ± 2
12807 kPa	718.1 ± 2
12823 kPa	718.1 ± 2
12837 kPa	718 ± 2
12936 kPa	718.2 ± 2
12949 kPa	718.2 ± 2
13023 kPa	718.3 ± 2
13043 kPa	718.3 ± 2
13073 kPa	718.3 ± 2
13090 kPa	718.3 ± 2
13112 kPa	718.3 ± 2
13128 kPa	718.4 ± 2
13145 kPa	718.3 ± 2
13160 kPa	718.4 ± 2
13180 kPa	718.4 ± 2
13197 kPa	718.5 ± 2
13215 kPa	718.4 ± 2
13228 kPa	718.4 ± 2
13244 kPa	718.4 ± 2
13258 kPa	718.4 ± 2
13272 kPa	718.4 ± 2
13285 kPa	718.4 ± 2
13303 kPa	718.6 ± 2
13314 kPa	718.5 ± 2
13328 kPa	718.5 ± 2
13346 kPa	718.4 ± 2
13361 kPa	718.4 ± 2
13379 kPa	718.4 ± 2
13395 kPa	718.6 ± 2
13413 kPa	718.5 ± 2
13429 kPa	718.6 ± 2
13443 kPa	718.6 ± 2
13457 kPa	718.6 ± 2
13476 kPa	718.7 ± 2
13496 kPa	718.6 ± 2
13510 kPa	718.6 ± 2
13531 kPa	718.5 ± 2
13547 kPa	718.7 ± 2
13565 kPa	718.7 ± 2
13587 kPa	718.7 ± 2
13601 kPa	718.6 ± 2
13622 kPa	718.7 ± 2
13639 kPa	718.7 ± 2
13660 kPa	718.8 ± 2
13677 kPa	718.8 ± 2
13699 kPa	718.8 ± 2
13715 kPa	718.9 ± 2
13732 kPa	718.8 ± 2
13753 kPa	718.9 ± 2
13770 kPa	718.9 ± 2
